Data taken from patent publication US12077503B2, “Substituted cyclic amides and their use as herbicides” (FMC CORPORATION, priority 2015, dated 2024).

Columns and labels:
Type in all cases: in vivo
[1] = tested on: velvetleaf (Abutilon theophrasti); assay: Test G Pre-Emergence Protocol; details: Abutilon theophrasti, pre-emergence, 312 h, evaluated after 13 days
Summary of the method: (§1)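 Glasshouse pre-emergence test: soil-sown seeds, sprayed after 1 d at 15.625, 62.5 or 250 g/ha. Conditions 24/16° C day/night, 14 h light, 65% humidity, watering twice daily. Rating 13 d post-spray (100 = total damage).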

[2] = tested on: redroot pigweed (Amaranthus retroflexus); assay: Test G Pre-Emergence Protocol; details: Amaranthus retroflexus, pre-emergence, 312 h, evaluated after 13 days
Summary of the method: as §1

[3] = tested on: ivy-leaved morning glory (Ipomoea hederacea); assay: Test G Pre-Emergence Protocol; details: Ipomoea, pre-emergence, 312 h, evaluated after 13 days
Summary of the method: as §1

[4] = tested on: corn (Zea mays); assay: Test G Pre-Emergence Protocol; details: Zea mays, pre-emergence, 312 h, evaluated after 13 days
Summary of the method: as §1

[5] = tested on: barnyardgrass (Echinochloa crus-galli); assay: Test G Pre-Emergence Protocol; details: Echinochloa crus-galli, pre-emergence, 312 h, evaluated after 13 days
Summary of the method: as §1

[6] = tested on: giant foxtail (Setaria faberi); assay: Test G Pre-Emergence Protocol; details: Setaria faberi, pre-emergence, 312 h, evaluated after 13 days
Summary of the method: as §1

[7] = tested on: velvetleaf (Abutilon theophrasti); assay: Test G Post-Emergence Protocol; details: Abutilon theophrasti, post-emergence, 312 h
Summary of the method: (§2)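 A glasshouse post-emergence test: 8-day-old plants sprayed at 15.625, 62.5 or 250 g/ha, then grown at 24/16 °C day/night with 14 h light and 65% humidity. Damage rated 13 days later, 0–100.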

[8] = tested on: redroot pigweed (Amaranthus retroflexus); assay: Test G Post-Emergence Protocol; details: Amaranthus retroflexus, post-emergence, 312 h
Summary of the method: as §2

[9] = tested on: ivy-leaved morning glory (Ipomoea hederacea); assay: Test G Post-Emergence Protocol; details: Ipomoea, post-emergence, 312 h
Summary of the method: as §2

[10] = tested on: corn (Zea mays); assay: Test G Post-Emergence Protocol; details: Zea mays, post-emergence, 312 h
Summary of the method: as §2

[11] = tested on: barnyardgrass (Echinochloa crus-galli); assay: Test G Post-Emergence Protocol; details: Echinochloa crus-galli, post-emergence, 312 h
Summary of the method: as §2

[12] = tested on: giant foxtail (Setaria faberi); assay: Test G Post-Emergence Protocol; details: Setaria faberi, post-emergence, 312 h
Summary of the method: as §2

**Q.** What does the source list for CN1C[C@@H](c2ccc(C(F)(F)F)cc2)[C@H](C(=O)Nc2ccc(F)c(Cl)c2F)C1=O (racemic) [Compound 1628]?
**A.** pest or weed control at 15.625 g/ha ([1]; 15.625 g ai/ha, read-out: Velvetleaf damage rating (100=total damage to plant; 0=no damage to plant)): 0%; pest or weed control at 62.5 g/ha ([1]; 62.5 g ai/ha, 100=total damage to plant, 0=no damage to plant, read-out: plant damage rating, Velvetleaf): 0%; pest or weed control at 250 g/ha ([1]; 250 g ai/ha, read-out: Velvetleaf damage rating (100=total damage to plant; 0=no damage to plant)): 0%; pest or weed control at 15.625 g/ha ([2]; 15.625 g ai/ha, read-out: Pigweed, Redroot damage rating (100=total damage to plant; 0=no damage to plant)): 0%; pest or weed control at 62.5 g/ha ([2]; 62.5 g ai/ha, 100=total damage to plant, 0=no damage to plant, read-out: plant damage rating, Pigweed, Redroot): 30%; pest or weed control at 250 g/ha ([2]; 250 g ai/ha, read-out: Pigweed, Redroot damage rating (100=total damage to plant; 0=no damage to plant)): 50%; pest or weed control at 15.625 g/ha ([3]; 15.625 g ai/ha, read-out: Morning-glory, Ivy-leaved damage rating (100=total damage to plant; 0=no damage to plant)): 20%; pest or weed control at 62.5 g/ha ([3]; 62.5 g ai/ha, 100=total damage to plant, 0=no damage to plant, read-out: plant damage rating, Morningglory, Ivy-leaved): 0%; pest or weed control at 250 g/ha ([3]; 250 g ai/ha, read-out: Morningglory, Ivy-leaved damage rating (100=total damage to plant; 0=no damage to plant)): 20%; plant injury at 15.625 g/ha ([4]; 15.625 g ai/ha, read-out: Corn damage rating (100=total damage to plant; 0=no damage to plant)): 0%; plant injury at 62.5 g/ha ([4]; 62.5 g ai/ha, 100=total damage to plant, 0=no damage to plant, read-out: plant damage rating, Corn): 0%; plant injury at 250 g/ha ([4]; 250 g ai/ha, read-out: Corn damage rating (100=total damage to plant; 0=no damage to plant)): 0%; pest or weed control at 15.625 g/ha ([5]; 15.625 g ai/ha, read-out: Barnyard grass damage rating (100=total damage to plant; 0=no damage to plant)): 10%; pest or weed control at 62.5 g/ha ([5]; 62.5 g ai/ha, 100=total damage to plant, 0=no damage to plant, read-out: plant damage rating, Barnyardgrass): 0%; pest or weed control at 250 g/ha ([5]; 250 g ai/ha, read-out: Barnyardgrass damage rating (100=total damage to plant; 0=no damage to plant)): 70%; pest or weed control at 15.625 g/ha ([6]; 15.625 g ai/ha, read-out: Foxtail, Giant damage rating (100=total damage to plant; 0=no damage to plant)): 50%; pest or weed control at 62.5 g/ha ([6]; 62.5 g ai/ha, 100=total damage to plant, 0=no damage to plant, read-out: plant damage rating, Foxtail, Giant): 50%; pest or weed control at 250 g/ha ([6]; 250 g ai/ha, read-out: Foxtail, Giant damage rating (100=total damage to plant; 0=no damage to plant)): 80%; pest or weed control at 15.625 g/ha ([7]; 15.625 g ai/ha, evaluated after 13 days (100=total damage to plant; 0=no damage to plant), read-out: Velvetleaf damage rating): 30%; pest or weed control at 62.5 g/ha ([7]; 62.5 g ai/ha, evaluated after 13 days, read-out: Velvetleaf damage rating (100=total damage to plant; 0=no damage to plant)): 20%; pest or weed control at 250 g/ha ([7]; 250 g ai/ha, evaluated after 13 days, read-out: damage to plant, Velvetleaf (100=total damage to plant; 0=no damage to plant)): 20%; pest or weed control at 15.625 g/ha ([8]; 15.625 g ai/ha, evaluated after 13 days (100=total damage to plant; 0=no damage to plant), read-out: Pigweed, Redroot damage rating): 10%; pest or weed control at 62.5 g/ha ([8]; 62.5 g ai/ha, evaluated after 13 days, read-out: Pigweed, Redroot damage rating (100=total damage to plant; 0=no damage to plant)): 50%; pest or weed control at 250 g/ha ([8]; 250 g ai/ha, evaluated after 13 days, read-out: damage to plant, Pigweed, Redroot (100=total damage to plant; 0=no damage to plant)): 60%; pest or weed control at 15.625 g/ha ([9]; 15.625 g ai/ha, evaluated after 13 days (100=total damage to plant; 0=no damage to plant), read-out: Morningglory, Ivy-leaved damage rating): 20%; pest or weed control at 62.5 g/ha ([9]; 62.5 g ai/ha, evaluated after 13 days, read-out: Morningglory, Ivy-leaved damage rating (100=total damage to plant; 0=no damage to plant)): 20%; pest or weed control at 250 g/ha ([9]; 250 g ai/ha, evaluated after 13 days, read-out: damage to plant, Morningglory, Ivy-leaved (100=total damage to plant; 0=no damage to plant)): 50%; plant injury at 15.625 g/ha ([10]; 15.625 g ai/ha, evaluated after 13 days (100=total damage to plant; 0=no damage to plant), read-out: Corn damage rating): 0%; plant injury at 62.5 g/ha ([10]; 62.5 g ai/ha, evaluated after 13 days, read-out: Corn damage rating (100=total damage to plant; 0=no damage to plant)): 0%; plant injury at 250 g/ha ([10]; 250 g ai/ha, evaluated after 13 days, read-out: damage to plant, Corn (100=total damage to plant; 0=no damage to plant)): 50%; pest or weed control at 15.625 g/ha ([11]; 15.625 g ai/ha, evaluated after 13 days (100=total damage to plant; 0=no damage to plant), read-out: Barnyardgrass damage rating): 30%; pest or weed control at 62.5 g/ha ([11]; 62.5 g ai/ha, evaluated after 13 days, read-out: Barnyardgrass damage rating (100=total damage to plant; 0=no damage to plant)): 70%; pest or weed control at 250 g/ha ([11]; 250 g ai/ha, evaluated after 13 days, read-out: damage to plant, Barnyardgrass (100=total damage to plant; 0=no damage to plant)): 70%; pest or weed control at 15.625 g/ha ([12]; 15.625 g ai/ha, evaluated after 13 days (100=total damage to plant; 0=no damage to plant), read-out: Foxtail, Giant damage rating): 70%; pest or weed control at 62.5 g/ha ([12]; 62.5 g ai/ha, evaluated after 13 days, read-out: Foxtail, Giant damage rating (100=total damage to plant; 0=no damage to plant)): 80%; pest or weed control at 250 g/ha ([12]; 250 g ai/ha, evaluated after 13 days, read-out: damage to plant, Foxtail, Giant (100=total damage to plant; 0=no damage to plant)): 80%
